As usually defined, the Ki is a measure of affinity in units of concentration, obtained from inhibition or displacement.

Each structure is given as a SMILES string. Counter-ions that a name gives are not always drawn.

Assay [1] deals with T1, cloned human H3 receptors (Homo sapiens, UniProt Q9Y5N1).
T1 construct: expressed in transfected cells
The experiment in a line: H3 Receptor Binding (Human). The conditions noted are these: cloned human H3 receptors stably expressed in SK-N-MC cells; average of the results obtained; read-out: Human H3 Ki. The protocol: H3 Receptor Binding (Human)
Binding of compounds to the cloned human H3 receptors, stably expressed in SK-N-MC cells, was performed as described by Barbier, A. J. et al. (Br. J. Pharmacol. 2004, 143(5), 649-661).

Assay [2] deals with T2, Rat H3 (Rattus norvegicus, UniProt Q9QYN8). The assay is described as follows: H3 Receptor Binding (Rat). The following applies: rat brain membranes without cerebellum, 0.8 nM N-[3H]-α-methylhistamine, 60 min at 25° C.; average of the results obtained. The protocol: H3 Receptor Binding (Rat)
A rat brain without cerebellum (Zivic Laboratories Inc., Pittsburgh, Pa.) was homogenized in 50 mM Tris-HCl/5 mM EDTA and centrifuged at 1,000 rpm for 5 min. The supernatant was removed and recentrifuged at 15,000 rpm for 30 min. Pellets were rehomogenized in 50 mM Tris/5 mM EDTA (pH 7.4). Membranes were incubated with 0.8 nM N-[^3H]-α-methylhistamine plus/minus test compounds for 60 min at 25° C. and harvested by rapid filtration over GF/C glass fiber filters (pretreated with 0.3% polyethylenimine) followed by four washes with buffer. Nonspecific binding was defined in the presence of 100 μM histamine.
Target sequence in this assay (Q9QYN8 1-397 isoform Q9QYN8-3): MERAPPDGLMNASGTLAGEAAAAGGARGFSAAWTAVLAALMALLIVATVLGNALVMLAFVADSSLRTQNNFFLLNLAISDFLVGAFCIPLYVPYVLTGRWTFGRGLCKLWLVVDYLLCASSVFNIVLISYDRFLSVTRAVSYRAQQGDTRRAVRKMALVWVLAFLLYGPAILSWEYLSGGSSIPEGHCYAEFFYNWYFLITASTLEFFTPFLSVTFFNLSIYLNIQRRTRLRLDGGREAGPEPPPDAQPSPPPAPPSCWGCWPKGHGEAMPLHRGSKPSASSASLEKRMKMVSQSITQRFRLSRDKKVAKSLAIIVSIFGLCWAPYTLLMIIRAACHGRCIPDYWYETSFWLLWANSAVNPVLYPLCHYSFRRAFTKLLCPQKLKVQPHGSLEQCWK

The target of assay [3] is T3, human H3 receptor (Homo sapiens, UniProt Q9Y5N1).
T3 construct: expressed in transfected cells; host or cells: SK-N-MC sublines with a reporter construct
T3 sequence (Q9Y5N1 whole entry): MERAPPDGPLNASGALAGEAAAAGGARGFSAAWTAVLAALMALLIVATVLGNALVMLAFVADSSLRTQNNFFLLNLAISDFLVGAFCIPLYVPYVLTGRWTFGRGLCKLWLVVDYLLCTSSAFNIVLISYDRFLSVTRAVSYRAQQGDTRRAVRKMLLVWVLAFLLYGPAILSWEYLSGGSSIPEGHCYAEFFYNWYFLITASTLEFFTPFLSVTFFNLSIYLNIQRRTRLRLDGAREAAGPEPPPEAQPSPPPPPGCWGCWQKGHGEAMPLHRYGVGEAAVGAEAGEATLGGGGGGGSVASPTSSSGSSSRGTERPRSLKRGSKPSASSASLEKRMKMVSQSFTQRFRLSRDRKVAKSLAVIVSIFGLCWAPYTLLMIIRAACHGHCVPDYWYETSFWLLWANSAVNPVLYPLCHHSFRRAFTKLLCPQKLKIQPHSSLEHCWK
The assay is described as follows: Cyclic AMP Accumulation (human H3 receptor). It counts as cell-based. An excerpt:
(§1) Sublines of SK-N-MC cells were created that expressed a reporter construct and either the human or rat H3 receptor.

The target in assay [4] is T2, Rat H3. The experiment in a line: cell-based.
Description: as §1
Target sequence in this assay (Q9QYN8 whole entry): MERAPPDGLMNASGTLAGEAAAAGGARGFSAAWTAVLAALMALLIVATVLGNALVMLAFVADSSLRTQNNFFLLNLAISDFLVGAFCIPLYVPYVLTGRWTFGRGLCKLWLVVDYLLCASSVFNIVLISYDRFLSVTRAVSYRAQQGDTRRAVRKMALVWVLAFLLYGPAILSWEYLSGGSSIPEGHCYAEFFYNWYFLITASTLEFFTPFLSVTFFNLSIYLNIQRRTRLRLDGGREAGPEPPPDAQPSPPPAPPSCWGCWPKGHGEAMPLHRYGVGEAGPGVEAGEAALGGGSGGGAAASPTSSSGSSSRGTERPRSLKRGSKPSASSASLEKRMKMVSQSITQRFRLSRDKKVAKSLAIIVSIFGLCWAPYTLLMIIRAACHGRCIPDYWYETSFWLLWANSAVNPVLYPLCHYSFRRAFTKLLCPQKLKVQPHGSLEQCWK

T1 sequence (Q9Y5N1 whole entry): as the sequence (Q9Y5N1 whole entry) above

For `O=C(c1ccc(Oc2ccc(Cl)c(Cl)c2)cn1)N1CCCN(C2CCC2)CC1` [Example 51, (4-Cyclobutyl-[1,4]diazepan-1-yl)-[5-(3,4-dichloro-phenoxy)-pyridin-2-yl]-methanone trifluoroacetic acid salt], the Ki came out at 2 nM in assay [1] and 60 nM in assay [2]. Further, the values for the Kb in assay [3] and in assay [4] were 2.29 nM and 21.9 nM, respectively.
Turning to `N#Cc1nc(C(=O)N2CCCN(C3CC3)CC2)ccc1Oc1cccnc1` [Example 56, 6-(4-Cyclopropyl-[1,4]diazepane-1-carbonyl)-3-(pyridin-3-yloxy)-pyridine-2-carbonitrile hydrochloride salt], the values for the Ki in assay [1] and in assay [2] were 5 nM and 179 nM, respectively. For the same compound, the results for the Kb in assay [3] and in assay [4] were 2.34 nM and 13.8 nM, respectively.
In the same order, the values of `Cc1ccccc1Oc1ccc(C(=O)N2CCCN(C3CCC3)CC2)cn1` [Example 102, (4-Cyclobutyl-[1,4]diazepan-1-yl)-(6-o-tolyloxy-pyridin-3-yl)-methanone] are 1 nM, 17 nM, 0.2 nM and 1.2 nM.

(Values after patent US8940731B2, “Substituted pyridyl amide compounds as modulators of the histamine H3 receptor” (Janssen Pharmaceutica NV, priority 2006, dated 2015).)
